From the NIST ThermoML archive (doi:10.1016/j.jct.2006.09.012)
Values joined by “and” are separate entries in the source; they are usually repeats but may differ in a detail not shown here. Equal values may be shown once. ± gives the expanded uncertainty stated by the source.

Settings: Gas, Buoyancy - hydrostatic balance with magnetic suspension - two sinkers

N#N [nitrogen]
Settings	mass density
250 K, 4032 kPa	55.8107 ± 0.04 kg/m3 [middle of 5 runs]
250 K, 7922 kPa	111.201 ± 0.16 kg/m3
250 K, 7922.1 kPa	111.201 ± 0.16 kg/m3
250 K, 11944 kPa	167.531 ± 0.35 kg/m3 and 167.53 ± 0.35 kg/m3
250 K, 15945 kPa	220.078 ± 0.59 kg/m3 and 220.076 ± 0.59 kg/m3
250 K, 15946 kPa	220.079 ± 0.59 kg/m3
250 K, 19672 kPa	264.436 ± 0.85 kg/m3 [middle of 5 runs]
250 K, 23918 kPa	309.033 ± 1.2 kg/m3 and 309.035 ± 1.2 kg/m3 and 309.038 ± 1.2 kg/m3
250 K, 23919 kPa	309.043 ± 1.2 kg/m3
250 K, 23920 kPa	309.056 ± 1.2 kg/m3
250 K, 23921 kPa	309.062 ± 1.2 kg/m3
250 K, 27922 kPa	345.621 ± 1.4 kg/m3 [middle of 4 runs]
250 K, 27923 kPa	345.629 ± 1.4 kg/m3 and 345.627 ± 1.4 kg/m3
250 K, 31914 kPa	377.498 ± 1.7 kg/m3 and 377.5 ± 1.7 kg/m3
250 K, 31915 kPa	377.505 ± 1.7 kg/m3 and 377.504 ± 1.7 kg/m3
250 K, 31916 kPa	377.516 ± 1.7 kg/m3 and 377.513 ± 1.7 kg/m3
273.16 K, 3969.2 kPa	49.6242 ± 0.033 kg/m3 [middle of 4 runs]
273.16 K, 3969.3 kPa	49.6242 ± 0.033 kg/m3
273.16 K, 6172.5 kPa	77.4431 ± 0.076 kg/m3 and 77.4438 ± 0.076 kg/m3 and 77.4433 ± 0.076 kg/m3
273.16 K, 6172.6 kPa	77.4441 ± 0.076 kg/m3 and 77.4442 ± 0.076 kg/m3
273.16 K, 8165.1 kPa	102.478 ± 0.14 kg/m3 and 102.48 ± 0.14 kg/m3
273.16 K, 8165.2 kPa	102.48 ± 0.14 kg/m3 and 102.479 ± 0.14 kg/m3
273.16 K, 12168 kPa	151.567 ± 0.29 kg/m3 [middle of 5 runs]
273.16 K, 16376 kPa	200.13 ± 0.5 kg/m3 [middle of 5 runs]
273.16 K, 20308 kPa	241.736 ± 0.72 kg/m3 and 241.739 ± 0.72 kg/m3
273.16 K, 20309 kPa	241.746 ± 0.72 kg/m3 and 241.745 ± 0.72 kg/m3 and 241.743 ± 0.72 kg/m3
273.16 K, 24524 kPa	281.91 ± 0.98 kg/m3
273.16 K, 24525 kPa	281.913 ± 0.98 kg/m3 and 281.915 ± 0.98 kg/m3
273.16 K, 24526 kPa	281.922 ± 0.98 kg/m3 and 281.921 ± 0.98 kg/m3
273.16 K, 28792 kPa	318.055 ± 1.2 kg/m3
273.16 K, 28793 kPa	318.057 ± 1.2 kg/m3 and 318.058 ± 1.2 kg/m3
273.16 K, 28794 kPa	318.067 ± 1.2 kg/m3 and 318.065 ± 1.2 kg/m3
273.16 K, 33963 kPa	356.391 ± 1.6 kg/m3
273.16 K, 33964 kPa	356.402 ± 1.6 kg/m3 and 356.397 ± 1.6 kg/m3
273.16 K, 33965 kPa	356.407 ± 1.6 kg/m3
273.16 K, 33966 kPa	356.413 ± 1.6 kg/m3
293.14 K, 99.9 kPa	1.1487 ± 0.0034 kg/m3 [middle of 4 runs]
293.14 K, 199.8 kPa	2.2978 ± 0.0035 kg/m3 and 2.2977 ± 0.0035 kg/m3 and 2.2976 ± 0.0035 kg/m3
293.14 K, 299.7 kPa	3.447 ± 0.0036 kg/m3 and 3.4472 ± 0.0036 kg/m3 and 3.4473 ± 0.0036 kg/m3
293.14 K, 499.5 kPa	5.7475 ± 0.0038 kg/m3 and 5.7477 ± 0.0038 kg/m3 and 5.7476 ± 0.0038 kg/m3
293.14 K, 749.2 kPa	8.6261 ± 0.004 kg/m3 and 8.626 ± 0.004 kg/m3
293.14 K, 749.3 kPa	8.6261 ± 0.004 kg/m3
293.14 K, 999 kPa	11.5072 ± 0.0045 kg/m3 [middle of 5 runs]
293.14 K, 1498.5 kPa	17.2762 ± 0.011 kg/m3 [middle of 6 runs]
293.14 K, 1998 kPa	23.0541 ± 0.012 kg/m3 and 23.0539 ± 0.012 kg/m3
293.14 K, 2997.1 kPa	34.6233 ± 0.019 kg/m3 and 34.6235 ± 0.019 kg/m3 and 34.6236 ± 0.019 kg/m3
293.14 K, 3996.1 kPa	46.1976 ± 0.029 kg/m3 [middle of 5 runs]
293.14 K, 4995.1 kPa	57.7592 ± 0.044 kg/m3
293.14 K, 4995.2 kPa	57.7597 ± 0.044 kg/m3 and 57.7599 ± 0.044 kg/m3
293.14 K, 5994.2 kPa	69.2908 ± 0.063 kg/m3 and 69.291 ± 0.063 kg/m3 and 69.2909 ± 0.063 kg/m3
293.14 K, 5994.3 kPa	69.2914 ± 0.063 kg/m3 and 69.2915 ± 0.063 kg/m3
293.15 K, 4004.8 kPa	46.2934 ± 0.03 kg/m3 [middle of 6 runs]
293.15 K, 4004.9 kPa	46.2937 ± 0.03 kg/m3
293.15 K, 5964.9 kPa	68.9512 ± 0.062 kg/m3 [middle of 5 runs]
293.15 K, 7948.6 kPa	91.6869 ± 0.12 kg/m3 [middle of 4 runs]
293.15 K, 7948.8 kPa	91.689 ± 0.12 kg/m3 and 91.6881 ± 0.12 kg/m3
293.15 K, 11980 kPa	136.716 ± 0.24 kg/m3 [middle of 7 runs]
293.15 K, 15954 kPa	178.78 ± 0.41 kg/m3
293.15 K, 15955 kPa	178.782 ± 0.41 kg/m3 [middle of 7 runs]
293.15 K, 19567 kPa	214.452 ± 0.58 kg/m3 and 214.453 ± 0.58 kg/m3
293.15 K, 19568 kPa	214.457 ± 0.58 kg/m3
293.15 K, 24175 kPa	256.042 ± 0.83 kg/m3
293.15 K, 24176 kPa	256.052 ± 0.83 kg/m3 [middle of 4 runs]
293.15 K, 28412 kPa	290.447 ± 1.1 kg/m3 [middle of 4 runs]
293.15 K, 28413 kPa	290.455 ± 1.1 kg/m3 and 290.453 ± 1.1 kg/m3
293.15 K, 32144 kPa	317.902 ± 1.3 kg/m3
293.15 K, 32145 kPa	317.909 ± 1.3 kg/m3 and 317.905 ± 1.3 kg/m3
293.15 K, 32146 kPa	317.912 ± 1.3 kg/m3
293.15 K, 32147 kPa	317.922 ± 1.3 kg/m3 and 317.917 ± 1.3 kg/m3
293.15 K, 32148 kPa	317.926 ± 1.3 kg/m3
320 K, 4775.8 kPa	50.1489 ± 0.035 kg/m3 and 50.1482 ± 0.035 kg/m3 and 50.1481 ± 0.035 kg/m3
320 K, 4775.9 kPa	50.1492 ± 0.035 kg/m3 and 50.1493 ± 0.035 kg/m3 and 50.149 ± 0.035 kg/m3
320 K, 10135 kPa	104.999 ± 0.15 kg/m3 and 105.001 ± 0.15 kg/m3 and 105.002 ± 0.15 kg/m3
320 K, 20210 kPa	198.799 ± 0.51 kg/m3 [middle of 6 runs]
339.98 K, 499.5 kPa	4.9482 ± 0.0035 kg/m3 and 4.9481 ± 0.0035 kg/m3 and 4.948 ± 0.0035 kg/m3
339.98 K, 999 kPa	9.8915 ± 0.004 kg/m3 and 9.8916 ± 0.004 kg/m3
339.98 K, 1998 kPa	19.7585 ± 0.011 kg/m3 and 19.7583 ± 0.011 kg/m3 and 19.7584 ± 0.011 kg/m3
339.98 K, 3996 kPa	39.3819 ± 0.023 kg/m3 [middle of 4 runs]
339.98 K, 5994.1 kPa	58.7959 ± 0.048 kg/m3 and 58.796 ± 0.048 kg/m3
339.99 K, 5081.9 kPa	49.9596 ± 0.035 kg/m3
339.99 K, 5082 kPa	49.9602 ± 0.035 kg/m3 and 49.9596 ± 0.035 kg/m3
339.99 K, 5082.1 kPa	49.9616 ± 0.035 kg/m3
339.99 K, 21784 kPa	198.014 ± 0.52 kg/m3
340 K, 5082 kPa	49.96 ± 0.035 kg/m3
340 K, 10840 kPa	104.588 ± 0.15 kg/m3 and 104.589 ± 0.15 kg/m3
340 K, 21784 kPa	198.008 ± 0.52 kg/m3 [middle of 5 runs]
340.01 K, 3874.6 kPa	38.1897 ± 0.022 kg/m3 [middle of 6 runs]
340.01 K, 5932.3 kPa	58.1965 ± 0.047 kg/m3 and 58.1955 ± 0.047 kg/m3
340.01 K, 5932.4 kPa	58.1962 ± 0.047 kg/m3
340.01 K, 7789.6 kPa	75.9992 ± 0.09 kg/m3
340.01 K, 7789.7 kPa	76.0004 ± 0.09 kg/m3 [middle of 5 runs]
